{"source": "patent US12552752B2", "about": "“Atropisomers of pyridazinone derivatives as herbicides” (FMC Corporation, priority 2020, dated 2026)", "assay_type_in_all_cases": "in vivo", "key": {"corn (CPI, Zea mays)": {"tested_on": "corn (CPI, Zea mays)", "test": "Test A postemergence, corn", "conditions": "POST, 0 to 100 scale, approximately 10 d", "excerpt": "(§1) Seeds of plant species selected from barnyardgrass (BYG, Echinochloa crus-galli), kochia (KOC, Kochia scoparia), ragweed (common ragweed, Ambrosia elatior), ryegrass, Italian (RGI, Lolium multiflorum), foxtail, giant (FTI, Setaria faberii), foxtail, green (Setaria viridis) and pigweed (PWR, Amaranthus retroflexus) were planted into a blend of loam soil and sand and treated preemergence with a directed soil spray using test chemicals formulated in a non-phytotoxic solvent mixture which included a surfactant. At the same time, plants selected from these weed species and also wheat (WWT, Triticum aestivum), corn (CPI, Zea mays), blackgrass (BKG, Alopecurus myosuroides) and galium (GAL, catchweed bedstraw, Galium aparine) were planted in pots containing the same blend of loam soil and sand and treated with postemergence applications of test chemicals formulated in the same manner Plants ranged in height from 2 to 10 cm and were in the one- to two-leaf stage for the postemergence treatment. Treated plants and untreated controls were maintained in a greenhouse for approximately 10 d, after which time all treated plants were compared to untreated controls and visually evaluated for injury. Plant response ratings, summarized in Tables 1-4, are based on a 0 to 100 scale where 0 is no effect and 100 is complete control. A dash (−) response means no test result. The ratings are followed by a letter representing the symptomology where S is Albinism, C is Chlorosis, G is Growth Inhibition and E is Emergence."}, "[1]": {"tested_on": "wheat (WWT, Triticum aestivum)", "test": "Test A postemergence, wheat", "conditions": "POST, 0 to 100 scale, approximately 10 d, listed as drawing 31", "excerpt": "as §1"}, "[2]": {"tested_on": "galium (GAL, catchweed bedstraw, Galium aparine)", "test": "Test A postemergence, galium", "conditions": "POST, 0 to 100 scale, approximately 10 d", "excerpt": "as §1"}, "[3]": {"tested_on": "kochia (KOC, Kochia scoparia)", "test": "Test A postemergence, kochia", "conditions": "POST, 0 to 100 scale, approximately 10 d", "excerpt": "as §1"}, "[4]": {"tested_on": "pigweed (PWR, Amaranthus retroflexus)", "test": "Test A postemergence, pigweed", "conditions": "POST, 0 to 100 scale, approximately 10 d", "excerpt": "as §1"}, "[5]": {"tested_on": "ragweed (common ragweed, Ambrosia elatior)", "test": "Test A postemergence, ragweed", "conditions": "POST, 0 to 100 scale, approximately 10 d", "excerpt": "as §1"}, "[6]": {"tested_on": "blackgrass (BKG, Alopecurus myosuroides)", "test": "Test A postemergence, blackgrass", "conditions": "POST, 0 to 100 scale, approximately 10 d, listed as drawing 31", "excerpt": "as §1"}, "[7]": {"tested_on": "ryegrass, Italian (RGI, Lolium multiflorum)", "test": "Test A postemergence, Italian ryegrass", "conditions": "POST, 0 to 100 scale, approximately 10 d, listed as drawing 31", "excerpt": "as §1"}, "[8]": {"tested_on": "barnyardgrass (BYG, Echinochloa crus-galli)", "test": "Test A postemergence, barnyardgrass", "conditions": "POST, 0 to 100 scale, approximately 10 d, listed as drawing 31", "excerpt": "as §1"}, "[9]": {"tested_on": "foxtail, giant (FTI, Setaria faberii)", "test": "Test A postemergence, giant foxtail", "conditions": "POST, 0 to 100 scale, approximately 10 d, listed as drawing 31", "excerpt": "as §1"}, "[10]": {"tested_on": "kochia (KOC, Kochia scoparia)", "test": "Test A preemergence, kochia", "conditions": "PRE, 0 to 100 scale, approximately 10 d", "excerpt": "as §1"}, "[11]": {"tested_on": "pigweed (PWR, Amaranthus retroflexus)", "test": "Test A preemergence, pigweed", "conditions": "PRE, 0 to 100 scale, approximately 10 d", "excerpt": "as §1"}, "[12]": {"tested_on": "ragweed (common ragweed, Ambrosia elatior)", "test": "Test A preemergence, ragweed", "conditions": "PRE, 0 to 100 scale, approximately 10 d, listed as drawing 31", "excerpt": "as §1"}, "[13]": {"tested_on": "ryegrass, Italian (RGI, Lolium multiflorum)", "test": "Test A preemergence, Italian ryegrass", "conditions": "PRE, 0 to 100 scale, approximately 10 d", "excerpt": "as §1"}, "[14]": {"tested_on": "barnyardgrass (BYG, Echinochloa crus-galli)", "test": "Test A preemergence, barnyardgrass", "conditions": "PRE, 0 to 100 scale, approximately 10 d", "excerpt": "as §1"}, "[15]": {"tested_on": "foxtail, giant (FTI, Setaria faberii)", "test": "Test A preemergence, giant foxtail", "conditions": "PRE, 0 to 100 scale, approximately 10 d", "excerpt": "as §1"}, "[16]": {"conditions": "31 g ai/ha, listed as drawing 31"}, "[17]": {"conditions": "16 g ai/ha, listed as drawing 31"}, "[18]": {"conditions": "62 g ai/ha, listed as drawing 31"}, "[19]": {"conditions": "125 g ai/ha, listed as drawing 31"}}, "note": "Several values for one entry are separate records, joined by “and”; a condition that tells them apart may be missing. Equal values may be shown once."}
{"smiles": "CCC(=O)Oc1c(Cl)nn(C)c(=O)c1-c1c(C)ccc2ccccc12", "note": "(racemic) [5 (Enantiomer 5A)]", "values": [{"measurement": "Plant response rating CPI", "setting": "corn (CPI, Zea mays); 16 g ai/ha", "result": 0}, {"measurement": "Plant response rating CPI", "setting": "corn (CPI, Zea mays); [16]", "result": 0}, {"measurement": "Plant response rating CPI", "setting": "corn (CPI, Zea mays); 62 g ai/ha", "result": 0}, {"measurement": "Plant response rating WWT", "setting": "[1]; 16 g ai/ha", "result": 0}, {"measurement": "Plant response rating WWT", "setting": "[1]; 31 g ai/ha", "result": 0}, {"measurement": "Plant response rating WWT", "setting": "[1]; 62 g ai/ha", "result": 0}, {"measurement": "Plant response rating WWT", "setting": "[1]; 125 g ai/ha", "result": 0}, {"measurement": "Plant response rating GAL", "setting": "[2]; 16 g ai/ha", "result": 90, "unit": "S"}, {"measurement": "Plant response rating GAL", "setting": "[2]; [16]", "result": 90, "unit": "S"}, {"measurement": "Plant response rating GAL", "setting": "[2]; 62 g ai/ha", "result": 100, "unit": "S"}, {"measurement": "Plant response rating GAL", "setting": "[2]; 125 g ai/ha", "result": 100, "unit": "S"}, {"measurement": "Plant response rating KOC", "setting": "[3]; [17]", "result": 70, "unit": "S"}, {"measurement": "Plant response rating KOC", "setting": "[3]; 31 g ai/ha", "result": 70, "unit": "S"}, {"measurement": "Plant response rating KOC", "setting": "[3]; [18]", "result": 80, "unit": "S"}, {"measurement": "Plant response rating KOC", "setting": "[3]; [19]", "result": "80 S and 70 S"}, {"measurement": "Plant response rating PWR", "setting": "[4]; [17]", "result": 80, "unit": "S"}, {"measurement": "Plant response rating PWR", "setting": "[4]; 31 g ai/ha", "result": 90, "unit": "S"}, {"measurement": "Plant response rating PWR", "setting": "[4]; 62 g ai/ha", "result": 90, "unit": "S"}, {"measurement": "Plant response rating PWR", "setting": "[4]; [19]", "result": 90, "unit": "S"}, {"measurement": "Plant response rating RWC", "setting": "[5]; [17]", "result": 80, "unit": "S"}, {"measurement": "Plant response rating RWC", "setting": "[5]; 31 g ai/ha", "result": 90, "unit": "S"}, {"measurement": "Plant response rating RWC", "setting": "[5]; 62 g ai/ha", "result": 90, "unit": "S"}, {"measurement": "Plant response rating RWC", "setting": "[5]; [19]", "result": 90, "unit": "S"}, {"measurement": "Plant response rating BKG", "setting": "[6]; 16 g ai/ha", "result": 0}, {"measurement": "Plant response rating BKG", "setting": "[6]; 31 g ai/ha", "result": 0}, {"measurement": "Plant response rating BKG", "setting": "[6]; 62 g ai/ha", "result": 0}, {"measurement": "Plant response rating RGI", "setting": "[7]; 16 g ai/ha", "result": 10, "unit": "S"}, {"measurement": "Plant response rating RGI", "setting": "[7]; 62 g ai/ha", "result": 50, "unit": "S"}, {"measurement": "Plant response rating BYG", "setting": "[8]; 16 g ai/ha", "result": 0}, {"measurement": "Plant response rating BYG", "setting": "[8]; 62 g ai/ha", "result": 0}, {"measurement": "Plant response rating BYG", "setting": "[8]; 125 g ai/ha", "result": "30 S and 20 S"}, {"measurement": "Plant response rating FTI", "setting": "[9]; 16 g ai/ha", "result": 10, "unit": "C"}, {"measurement": "Plant response rating FTI", "setting": "[9]; 31 g ai/ha", "result": 10, "unit": "S"}, {"measurement": "Plant response rating FTI", "setting": "[9]; 62 g ai/ha", "result": 10, "unit": "S"}, {"measurement": "Plant response rating FTI", "setting": "[9]; 125 g ai/ha", "result": "20 S and 30 S"}, {"measurement": "Plant response rating KOC", "setting": "[10]; 16 g ai/ha", "result": 10, "unit": "C"}, {"measurement": "Plant response rating KOC", "setting": "[10]; [18]", "result": 70, "unit": "S"}, {"measurement": "Plant response rating KOC", "setting": "[10]; [19]", "result": 80, "unit": "S"}, {"measurement": "Plant response rating PWR", "setting": "[11]; [17]", "result": 10, "unit": "C"}, {"measurement": "Plant response rating PWR", "setting": "[11]; 31 g ai/ha", "result": "60 C and 100 C"}, {"measurement": "Plant response rating PWR", "setting": "[11]; [18]", "result": 90, "unit": "C"}, {"measurement": "Plant response rating RWC", "setting": "[12]; 16 g ai/ha", "result": 0}, {"measurement": "Plant response rating RWC", "setting": "[12]; 62 g ai/ha", "result": 90, "unit": "C"}, {"measurement": "Plant response rating RWC", "setting": "[12]; 125 g ai/ha", "result": "100 C and 90 C"}, {"measurement": "Plant response rating RGI", "setting": "[13]; 16 g ai/ha", "result": 0}, {"measurement": "Plant response rating RGI", "setting": "[13]; 31 g ai/ha", "result": 0}, {"measurement": "Plant response rating RGI", "setting": "[13]; [18]", "result": 0}, {"measurement": "Plant response rating RGI", "setting": "[13]; [19]", "result": "30 S and 20 S"}, {"measurement": "Plant response rating BYG", "setting": "[14]; 16 g ai/ha", "result": 0}, {"measurement": "Plant response rating BYG", "setting": "[14]; 31 g ai/ha", "result": 0}, {"measurement": "Plant response rating BYG", "setting": "[14]; 62 g ai/ha", "result": 0}, {"measurement": "Plant response rating FTI", "setting": "[15]; 16 g ai/ha", "result": 0}, {"measurement": "Plant response rating FTI", "setting": "[15]; [18]", "result": 0}]}
